Test results published in patent publication US20230250106A1, “COMPOUNDS AND COMPOSITIONS FOR TREATING CONDITIONS ASSOCIATED WITH STING ACTIVITY” (IFM Due, Inc., priority 2020, published 2023).

Tested on: STING pathway
Assay: STING reporter assay: luciferase reporter activity in THP1-Dual KO-IFNAR2 cells activated with 2'3'cGAMP
Assay type: cell-based
Set-up: hSTING EC50: scale not given here
Conditions: 2'3'cGAMP 15 μM, 24 h; for EC50: Homo sapiens, read-out: hSTING EC50
Method in brief: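 Luciferase secreted into the supernatant (QUANTI-Luc Plus read-out) was measured after 24 h at 37 °C. This was in THP1-Dual KO-IFNAR2 cells given test compounds (0.0017-100 μM final) plus Lipofectamine-transfected 2′3′cGAMP at 15 μM final; EC50 was then derived.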

| EC50 | hSTING EC50 | Structure (SMILES) |
| --- | --- | --- |
| 1000 to 5000 nM | – | O=C(Nc1c[nH]c2cc(F)c(F)cc12)c1ccc(C2(O)CCC(F)(F)CC2)nc1 [Compound 250, 6-(4,4-difluoro-1-hydroxycyclohexyl)-N-(5,6-difluoro-1H-indol-3-yl)nicotinamide] |
| 1000 to 5000 nM | – | O=C(Nc1c[nH]c2cc(F)c(F)cc12)c1cccc(C2(O)CCC(F)(F)CC2)c1 [Compound 251, 3-(4,4-difluoro-1-hydroxycyclohexyl)-N-(5,6-difluoro-1H-indol-3-yl)benzamide] |
| 1000 to 5000 nM | – | O=C(Nc1c[nH]c2cc(F)c(F)cc12)c1ccnc(N2CC(F)(F)C2)c1Cl [Compound 252, 3-chloro-N-(5,6-difluoro-1H-indol-3-yl)-2-(3,3-difluoroazetidin-1-yl)isonicotinamide] |
| 1000 to 5000 nM | – | Cc1c(C(=O)Nc2c[nH]c3cc(F)c(F)cc23)ccnc1N1CC(F)(F)C1 [Compound 253, N-(5,6-difluoro-1H-indol-3-yl)-2-(3,3-difluoroazetidin-1-yl)-3-methylisonicotinamide] |
| 200 to 1000 nM | – | O=C(Nc1c[nH]c2cc(F)c(F)cc12)c1cnc(CN2CCC(F)(F)CC2)c(Cl)c1 [Compound 254, 5-chloro-N-(5,6-difluoro-1H-indol-3-yl)-6-((4,4-difluoropiperidin-1-yl)methyl)nicotinamide] |
| 1000 to 5000 nM | – | O=C(Nc1c[nH]c2cc(F)c(F)cc12)c1cnc(CN2CC(F)(F)C2)c(Cl)c1 [Compound 255, 5-chloro-N-(5,6-difluoro-1H-indol-3-yl)-6-((3,3-difluoroazetidin-1-yl)methyl)nicotinamide] |
| 1000 to 5000 nM | – | Cc1ncc(C(=O)Nc2c[nH]c3cc(F)c(F)cc23)cc1N1CCC(F)(F)CC1 [Compound 256, N-(5,6-difluoro-1H-indol-3-yl)-5-(4,4-difluoropiperidin-1-yl)-6-methylnicotinamide] |
| 5000 to 100000 nM | – | O=C(Nc1c[nH]c2cc(F)c(F)cc12)c1ccnc(CN2CC(F)(F)C2)c1 [Compound 257, N-(5,6-difluoro-1H-indol-3-yl)-2-((3,3-difluoroazetidin-1-yl)methyl)isonicotinamide] |
| 200 to 1000 nM | – | O=C(Nc1c[nH]c2cc(F)c(F)cc12)c1ccc(C2(O)CCC(F)(F)CC2)c(F)c1 [Compound 258, 4-(4,4-difluoro-1-hydroxycyclohexyl)-N-(5,6-difluoro-1H-indol-3-yl)-3-fluorobenzamide] |
| 200 to 1000 nM | – | O=C(Nc1c[nH]c2cc(F)c(Cl)cc12)c1ccc(C2(O)CCC(F)(F)CC2)cc1 [Compound 259, N-(5-chloro-6-fluoro-1H-indol-3-yl)-4-(4,4-difluoro-1-hydroxycyclohexyl)benzamide] |
| 200 to 1000 nM | – | O=C(Nc1c[nH]c2cc(F)c(F)cc12)c1ccc(CN2CC(F)C2)c(F)c1 [Compound 260, N-(5,6-difluoro-1H-indol-3-yl)-3-fluoro-4-((3-fluoroazetidin-1-yl)methyl)benzamide] |
| 200 to 1000 nM | – | CCC1Cc2ccc(C(=O)Nc3c[nH]c4cc(F)c(F)cc34)cc2C1 (stereo not shown) [Compound 261, N-(5,6-difluoro-1H-indol-3-yl)-2-ethyl-2,3-dihydro-1H-indene-5-carboxamide] |
| 200 to 1000 nM | – | O=C(Nc1c[nH]c2cc(F)c(F)cc12)c1ccc(OCCOC(F)(F)F)c(F)c1 [Compound 262, N-(5,6-difluoro-1H-indol-3-yl)-3-fluoro-4-(2-(trifluoromethoxy)ethoxy)benzamide] |
| 200 to 1000 nM | – | O=C(Nc1c[nH]c2cc(F)c(F)cc12)c1ccnc(Oc2ccccc2)c1 [Compound 263, N-(5,6-difluoro-1H-indol-3-yl)-2-phenoxypyridine-4-carboxamide] |
| – | + + | COc1ncc(C(=O)Nc2c[nH]c3cc(F)c(F)cc23)cc1C(F)(F)F [Compound 264, N-(5,6-difluoro-1H-indol-3-yl)-6-methoxy-5-(trifluoromethyl)pyridine-3-carboxamide] |
| 200 to 1000 nM | – | CC(C)Oc1ccc(C(=O)Nc2c[nH]c3cc(F)c(F)cc23)cn1 [Compound 265, N-(5,6-difluoro-1H-indol-3-yl)-6-(propan-2-yloxy)pyridine-3-carboxamide] |

| EC50 | hSTING EC50 | Structure (SMILES) |
| --- | --- | --- |
| 200 to 1000 nM | – | O=C(Nc1c[nH]c2cc(F)c(F)cc12)c1ccc(-c2noc(C3CC3)n2)cc1 [Compound 266, 4-(5-cyclopropyl-1,2,4-oxadiazol-3-yl)-N-(5,6-difluoro-1H-indol-3-yl)benzamide] |
| 200 to 1000 nM | – | CC(C)c1nc(-c2ccc(C(=O)Nc3c[nH]c4cc(F)c(F)cc34)cc2)no1 [Compound 267, N-(5,6-difluoro-1H-indol-3-yl)-4-(5-isopropyl-1,2,4-oxadiazol-3-yl)benzamide] |
| 200 to 1000 nM | – | O=C(Nc1c[nH]c2cc(F)c(F)cc12)c1ccc(OC(F)(F)C(F)F)cc1 [Compound 268, N-(5,6-difluoro-1H-indol-3-yl)-4-(1,1,2,2-tetrafluoroethoxy)benzamide] |
| 1000 to 5000 nM | – | O=C(Nc1c[nH]c2cc(F)c(F)cc12)c1ccc(OC2COC2)cc1 [Compound 269, N-(5,6-difluoro-1H-indol-3-yl)-4-(oxetan-3-yloxy)benzamide] |
| 5000 to 100000 nM | – | O=C(Nc1c[nH]c2cc(F)c(F)cc12)c1ccc(OC(F)F)cn1 [Compound 270, N-(5,6-difluoro-1H-indol-3-yl)-5-(difluoromethoxy)pyridine-2-carboxamide] |
| 200 to 1000 nM | – | N#Cc1cc(C(=O)Nc2c[nH]c3ccc(Cl)cc23)cnc1N1CC(F)(F)C1 [Compound 271, N-(5-chloro-1H-indol-3-yl)-5-cyano-6-(3,3-difluoroazetidin-1-yl)nicotinamide] |
| 200 to 1000 nM | – | Cc1cc(N2CC(F)(F)C2)ncc1C(=O)Nc1c[nH]c2ccc(Cl)cc12 [Compound 272, N-(5-chloro-1H-indol-3-yl)-6-(3,3-difluoroazetidin-1-yl)-4-methylnicotinamide] |
| 5000 to 100000 nM | – | O=C(Nc1c[nH]c2cc(F)c(F)cc12)c1ccc(CN2CC(F)(F)C2)nc1 [Compound 273, N-(5,6-difluoro-1H-indol-3-yl)-6-((3,3-difluoroazetidin-1-yl)methyl)nicotinamide] |
| 200 to 1000 nM | – | Cc1nc(-c2cccc(C(=O)Nc3c[nH]c4cc(F)c(F)cc34)c2)no1 [Compound 274, N-(5,6-difluoro-1H-indol-3-yl)-3-(5-methyl-1,2,4-oxadiazol-3-yl)benzamide] |
| 1000 to 5000 nM | – | CC(O)c1cc(C(=O)Nc2c[nH]c3cc(F)c(F)cc23)cc(C(F)(F)F)c1 (stereo not shown) [Compound 275, N-(5,6-difluoro-1H-indol-3-yl)-3-(1-hydroxyethyl)-5-(trifluoromethyl)benzamide] |
| 200 to 1000 nM | – | CC(O)c1cc(C(=O)Nc2c[nH]c3cc(F)c(F)cc23)ccc1C(F)(F)F (stereo not shown) [Compound 276, N-(5,6-difluoro-1H-indol-3-yl)-3-(1-hydroxyethyl)-4-(trifluoromethyl)benzamide] |
| 5000 to 100000 nM | – | O=C(Nc1c[nH]c2cc(F)c(F)cc12)c1cccc(NCCCC(F)(F)F)n1 [Compound 277, N-(5,6-difluoro-1H-indol-3-yl)-6-((4,4,4-trifluorobutyl)amino)picolinamide] |
| 1000 to 5000 nM | – | Cc1cc(C(=O)Nc2c[nH]c3cc(F)c(F)cc23)cc(C)c1C1CCC(F)(F)CC1 [Compound 278, N-(5,6-difluoro-1H-indol-3-yl)-4-(4,4-difluorocyclohexyl)-3,5-dimethylbenzamide] |
| 1000 to 5000 nM | – | O=C(Nc1c[nH]c2cc(F)c(F)cc12)c1cc(CCO)cc(C(F)(F)F)c1 [Compound 279, N-(5,6-difluoro-1H-indol-3-yl)-3-(2-hydroxyethyl)-5-(trifluoromethyl)benzamide] |
| 200 to 1000 nM | – | O=C(Nc1c[nH]c2cc(F)c(F)cc12)c1ccc(C(F)(F)F)c(CCO)c1 [Compound 280, N-(5,6-difluoro-1H-indol-3-yl)-3-(2-hydroxyethyl)-4-(trifluoromethyl)benzamide] |
